Patent US8431596B2 (Cancer Research Technology Limited, priority 2007, dated 2013)

Biological target: T1, AXL (human catalytic domain) (Homo sapiens, UniProt P30530)
T1 construct: purchased Upstate Ltd. 14-512
T1 sequence (P30530 473-894): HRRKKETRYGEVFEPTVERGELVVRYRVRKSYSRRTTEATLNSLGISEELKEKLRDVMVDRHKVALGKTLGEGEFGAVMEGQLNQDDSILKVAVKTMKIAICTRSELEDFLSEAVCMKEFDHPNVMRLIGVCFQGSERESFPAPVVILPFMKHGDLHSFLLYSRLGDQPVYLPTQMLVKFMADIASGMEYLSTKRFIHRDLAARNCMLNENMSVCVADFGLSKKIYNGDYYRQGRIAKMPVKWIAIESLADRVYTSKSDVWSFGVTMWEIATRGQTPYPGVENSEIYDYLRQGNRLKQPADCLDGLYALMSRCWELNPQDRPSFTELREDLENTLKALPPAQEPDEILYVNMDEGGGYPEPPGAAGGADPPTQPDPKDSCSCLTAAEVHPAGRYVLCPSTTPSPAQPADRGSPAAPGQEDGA
Experiment: AXL (human catalytic domain) Enzyme Activity Assay (IMAP fluorescence polarisation)
Assay type: biochemical
Method: Biological Methods AXL (human catalytic domain) Enzyme Activity Assay Reagents
Kinase Assay Reaction Buffer: This consisted of 20 mM HEPES pH 7.0, 10 mM MgCl2, 1 mM DTT, […], 0.01% Triton X100 (v/v), and 0.01% BSA (w/v). All buffer components were purchased from Sigma-Aldrich at reagent grade or higher.
Kinase: Recombinant AXL isoform 1 (aa473-894 corresponding to Genbank Accession Number NP 068713) at 2 mg/mL (20.8 μM) was purchased from Upstate Ltd. (Product code 14-512, lot #28164U). The enzyme was stored at −80° C. and a working stock was prepared to a concentration of 30 nM by diluting 20.8 μM stock 1:693 in cold (4° C.) 1× Reaction Buffer. Final enzyme concentration in the assay was 15 nM.
Substrate: Fluorescein labelled CSK-tide 5FAM-[…]-NH2 was obtained from Molecular Devices (Product code R7270) and used at a working concentration of 200 nM by diluting the 100 μM stock 1:500 in 1× Reaction Buffer in a mix with the enzyme. A negative control (lacking enzyme) was prepared at the same concentrations. Final substrate concentration in the assay was 100 nM.
ATP: Supplied by Sigma (product code A-7699). A 100 mM ATP stock was prepared in […] and used at a working concentration of 375 μM by diluting the 100 mM stock 1:266.6 in Reaction Buffer. Final ATP concentration in the assay was 150 μM; this concentration represents the KM.ATP for this enzyme calculated in this assay.
IMAP Reagents: IMAP screening express kit was obtained from Molecular Devices (product code R8127). The binding reagent was gently re-suspended before diluting by 1:1000 in buffer (Binding Buffer is supplied as a 5× stock and so was diluted with water prior to use—this assay used 40% buffer A and 60% buffer B) and then vortexed before addition to wells. The binding reagent was used at a final dilution of 1:1333.
1 μL samples of test compounds in 10% DMSO/water were added to “test” wells by dry-spotting using a Matrix Platemate Plus. 5 μL Kinase/Substrate in Reaction Buffer were added to columns 1-22 of a Corning black low binding 384 well #6754 (90 μL volume) microplate to give 12 nM and 100 nM reaction concentration respectively. 5 μL substrate in Reaction Buffer was added to columns 23 and 24 to give 100 nM reaction concentration. 4 μL ATP in Reaction Buffer was added to all wells to give 150 μM reaction concentration. The reaction mixture was then incubated at room temperature for 60 minutes. The incubation period was followed by the addition of 20 μL IMAP Binding Reagent in Binding Buffer to all wells. The IMAP reaction detection was further incubated at room temperature overnight. The FP on a Tecan Ultra Plate reader was recorded as a single read at Ex485 Em535.
Percentage inhibition was calculated based on activity of the test sample minus the average values in the blank wells relative to the average values measured in control wells minus the average values in the blank wells.
IC50 values were calculated from 10 point dose sigmoid ‘dose-response’ curves using XIfit software (IDBS Inc, USA). Data were fitted to a 4 parameter logistic model/sigmoidal dose response defined by the following equation:
[formula] where: • A=fit minimum (locked to 0); • B=fit maximum (locked to 100); • C=fit midpoint (pre-fit to 1); and • D=slope at linear portion of curve, hillslope (pre-fit to 0.1).
The value for C represents the IC50 of the test compound.

[1] = first data set, recombinant AXL isoform 1 aa473-894, 150 μM ATP
[2] = further data set (WW-001 through WW-169, XX-001 through XX-469, YY-001 through YY-016, ZZ-001 through ZZ-003), 150 μM ATP

COc1ccc(-c2cccc3nc(NC(=O)CC4CC4)nn23)cc1 [WW-038]
IC50 [1]: 1 to 10 µM
IC50 [2]: 1 to 10 µM

COc1ccc(-c2cccc3nc(NC(C)=O)nn23)cc1 [WW-039]
IC50 [1]: 1 to 10 µM
IC50 [2]: 1 to 10 µM

CCC(=O)Nc1nc2cccc(-c3ccc(OC)cc3)n2n1 [WW-040]
IC50 [1]: 1 to 10 µM
IC50 [2]: 1 to 10 µM

COCC(=O)Nc1nc2cccc(-c3ccc(OC)cc3)n2n1 [WW-041]
IC50 [1]: 1 to 10 µM
IC50 [2]: 1 to 10 µM

COc1ccc(-c2cccc3nc(NC(=O)C4CCC4)nn23)cc1 [WW-042]
IC50 [1]: 1 to 10 µM
IC50 [2]: 1 to 10 µM

COc1ccc(-c2cccc3nc(NC(=O)CC(C)C)nn23)cc1 [WW-043]
IC50 [1]: 1 to 10 µM
IC50 [2]: 1 to 10 µM

COc1ccc(-c2cccc3nc(NC(=O)C4CCCC4)nn23)cc1 [WW-046]
IC50 [1]: 1 to 10 µM
IC50 [2]: 1 to 10 µM

Cc1ccc(-c2cccc3nc(NC(=O)C4CC4)nn23)cc1 [WW-047]
IC50 [1]: < 1 µM
IC50 [2]: 0.1 to 1 µM

O=C(Nc1nc2cccc(-c3ccc4c(c3)OCO4)n2n1)C1CC1 [WW-049]
IC50 [1]: < 1 µM
IC50 [2]: 0.1 to 1 µM

NCc1ccc(-c2cccc3nc(NC(=O)C4CC4)nn23)cc1 [WW-050]
IC50 [1]: 1 to 10 µM
IC50 [2]: 1 to 10 µM

O=C(Nc1nc2cccc(-c3cncc(F)c3)n2n1)C1CC1 [WW-052]
IC50 [1]: 1 to 10 µM
IC50 [2]: 1 to 10 µM

O=C(Nc1nc2cccc(-c3ccn[nH]3)n2n1)C1CC1 [WW-053]
IC50 [1]: 1 to 10 µM
IC50 [2]: 1 to 10 µM

Nc1cccc(-c2cccc3nc(NC(=O)C4CC4)nn23)c1 [WW-054]
IC50 [1]: < 1 µM
IC50 [2]: 0.1 to 1 µM

Cc1ccc(-c2cccc3nc(NC(=O)C4CC4)nn23)s1 [WW-055]
IC50 [1]: 1 to 10 µM
IC50 [2]: 1 to 10 µM

O=C(Nc1nc2cccc(-c3ccoc3)n2n1)C1CC1 [WW-056, Cyclopropanecarboxylic acid (5-furan-3-yl [1,2,4]triazolo[1,5-a]pyridin-2-yl)-amide]
IC50 [1]: 1 to 10 µM
IC50 [2]: 1 to 10 µM

O=C(Nc1nc2cccc(-c3cccs3)n2n1)C1CC1 [WW-057]
IC50 [1]: 1 to 10 µM
IC50 [2]: 1 to 10 µM

Cc1csc(-c2cccc3nc(NC(=O)C4CC4)nn23)c1 [WW-058]
IC50 [1]: 1 to 10 µM
IC50 [2]: 1 to 10 µM

O=C(Nc1nc2cccc(-c3ccsc3)n2n1)C1CC1 [WW-059]
IC50 [1]: < 1 µM
IC50 [2]: 0.1 to 1 µM

O=C(Nc1nc2cccc(-c3cn[nH]c3)n2n1)C1CC1 [WW-060, cyclopropanecarboxylic acid [5-(1H-pyrazol-4-yl)-[1,2,4]triazolo[1,5-a]pyridin-2-yl]-amide]
IC50 [1]: 1 to 10 µM
IC50 [2]: 1 to 10 µM

O=C(Nc1nc2cccc(-c3ccco3)n2n1)C1CC1 [WW-061]
IC50 [1]: 1 to 10 µM
IC50 [2]: 1 to 10 µM

O=C(Nc1nc2cccc(-c3ccc(N4CCOCC4)nc3)n2n1)C1CC1 [WW-062]
IC50 [1]: 1 to 10 µM
IC50 [2]: 1 to 10 µM

O=C(Nc1nc2cccc(-c3ccc(-c4ccccc4)cc3)n2n1)C1CC1 [WW-063]
IC50 [1]: < 1 µM
IC50 [2]: 0.1 to 1 µM

Cn1cc(-c2cccc3nc(NC(=O)C4CC4)nn23)cn1 [WW-064]
IC50 [1]: < 1 µM
IC50 [2]: 0.1 to 1 µM

Cn1ccc2cc(-c3cccc4nc(NC(=O)C5CC5)nn34)ccc21 [WW-066]
IC50 [1]: < 1 µM
IC50 [2]: 0.1 to 1 µM

COc1ccc(-c2cccc3nc(NC(=O)C4CC4)nn23)cc1F [WW-067]
IC50 [1]: 1 to 10 µM
IC50 [2]: 1 to 10 µM

CC(=O)Nc1ccc(-c2cccc3nc(NC(=O)C4CC4)nn23)cc1 [WW-068]
IC50 [1]: 1 to 10 µM
IC50 [2]: 1 to 10 µM

CN(C)c1ccc(-c2cccc3nc(NC(=O)C4CC4)nn23)cc1 [WW-069]
IC50 [1]: < 1 µM
IC50 [2]: 0.1 to 1 µM

COC(=O)c1ccc(-c2cccc3nc(NC(=O)C4CC4)nn23)cc1 [WW-070]
IC50 [1]: 1 to 10 µM
IC50 [2]: 1 to 10 µM

CN(C)c1cccc(-c2cccc3nc(NC(=O)C4CC4)nn23)c1 [WW-071]
IC50 [1]: 1 to 10 µM
IC50 [2]: 1 to 10 µM

CCCCNc1cccc2nc(NC(=O)C3CC3)nn12 [WW-073]
IC50 [1]: 1 to 10 µM
IC50 [2]: 1 to 10 µM

O=C(Nc1nc2cccc(NCc3ccccn3)n2n1)C1CC1 [WW-075, Cyclopropanecarboxylic acid {5-[(pyridin-2-ylmethyl)-amino]-[1,2,4]triazolo[1,5-a]pyridin-2-yl}-amide]
IC50 [1]: 1 to 10 µM
IC50 [2]: 1 to 10 µM

CN1CCCC1CCNc1cccc2nc(NC(=O)C3CC3)nn12 (stereo not drawn) [WW-076]
IC50 [1]: 1 to 10 µM
IC50 [2]: 1 to 10 µM

O=C(Nc1nc2cccc(NCCc3c[nH]c4ccccc34)n2n1)C1CC1 [WW-077]
IC50 [1]: 1 to 10 µM
IC50 [2]: 1 to 10 µM

O=C(Nc1nc2cccc(NC3CCCC3)n2n1)C1CC1 [WW-078]
IC50 [1]: 1 to 10 µM
IC50 [2]: 1 to 10 µM

CC(C)CNc1cccc2nc(NC(=O)C3CC3)nn12 [WW-079]
IC50 [1]: 1 to 10 µM
IC50 [2]: 1 to 10 µM

CC(C)(C)CNc1cccc2nc(NC(=O)C3CC3)nn12 [WW-080]
IC50 [1]: 1 to 10 µM
IC50 [2]: 1 to 10 µM

O=C(Nc1nc2cccc(NCc3cccc(Cl)c3)n2n1)C1CC1 [WW-081]
IC50 [1]: 1 to 10 µM
IC50 [2]: 1 to 10 µM

O=C(Nc1nc2cccc(NCc3ccccc3Cl)n2n1)C1CC1 [WW-082]
IC50 [1]: 1 to 10 µM
IC50 [2]: 1 to 10 µM

Cc1ccc(-c2cccc3nc(NC(=O)C4CC4)nn23)cn1 [WW-084]
IC50 [1]: 1 to 10 µM
IC50 [2]: 1 to 10 µM

O=C(Nc1nc2cccc(-c3cnc4ccccc4c3)n2n1)C1CC1 [WW-085]
IC50 [1]: 1 to 10 µM
IC50 [2]: 1 to 10 µM

Cc1cc(-c2cccc3nc(NC(=O)C4CC4)nn23)ccn1 [WW-087]
IC50 [1]: 1 to 10 µM
IC50 [2]: 1 to 10 µM

Cc1cc(-c2cccc3nc(NC(=O)C4CC4)nn23)cnc1F [WW-088]
IC50 [1]: 1 to 10 µM
IC50 [2]: 1 to 10 µM

O=C(Nc1nc2cccc(-c3ccc4ccccc4c3)n2n1)C1CC1 [WW-089]
IC50 [1]: < 1 µM
IC50 [2]: 0.1 to 1 µM

O=C(Nc1nc2cccc(-c3ccc(F)c(F)c3)n2n1)C1CC1 [WW-090]
IC50 [1]: 1 to 10 µM
IC50 [2]: 1 to 10 µM

O=C(Nc1nc2cccc(-c3cccc([N+](=O)[O-])c3)n2n1)C1CC1 [WW-091]
IC50 [1]: 1 to 10 µM
IC50 [2]: 1 to 10 µM
